According to ChEMBL document CHEMBL3430912, “GSK Tres Cantos Anti-Kinetoplastid Screening (TCAKS) Data”:

Legend:
Trypanosoma cruzi [1] = assay: (§1) GSK_TCAKS: pIC50 Trypanosoma cruzi Imaging: Infected Cells. […] Cells were then washed once with PBS before infection. T. cruzi trypomastigotes, collected at days 5 to 8 after infection from LLC-MK2 parasite infected cultures, were allowed to swim out for 4h at 37C from a centrifuged pellet (2,500 rpm/10 min/room temperature). Trypomastigotes were then collected and counted in a CASY Cell Counter. Trypomastigotes, in supplemented DMEM, were added to H9c2 cultures in a multiplicity of infection of 1 and incubated for 18 h. Cells were washed once with PBS before incubation of the infected H9c2 monolayer with trypsin (Life-Technologies) to detach cells from the flask. Cells were counted in a CASY Cell Counter using a 150 um capillary and their density set at 5 * 10^4 cells per mL in supplemented assay DMEM. Infected H9c2 were dispensed into 384-well poly-lysine coated assay plates at 50uL per well using a Multidrop Combi dispenser. After seeding them, the plates were incubated at 37C, 5% CO2 for 72h. Cultures were then fixed and stained by addition of 50 uL of a solution containing 8% formaldehyde and 4 uM DRAQ5 DNA dye (BioStatus, UK) per well. […] Five images were collected per well for reliable statistical analysis. Automated image analysis was performed with a script developed on Acapella High Content Imaging and Analysis Software (PerkinElmer). Output: percentage of infected cells per well as a second infection marker.; format: functional, organism-based, Rattus norvegicus; conditions: H9c2, 4 h
Leishmania donovani [2] = assay: GSK_TCAKS: pIC50 Leishmania donovani Imaging: Infected Macrophages. Assay plates (384-well) were prepared by adding 250nL of compound to each well. For single shot assay, the final compound concentration was 5 uM. […] Automated image analysis was performed with a script developed on Acapella High Content Imaging and Analysis Software (PerkinElmer). Output: Percent of infected macrophage cells were reported for each well.; format: functional, organism-based, Homo sapiens; conditions: THP-1
Leishmania donovani [3] = assay: GSK_TCAKS: pIC50 Leishmania donovani Imaging: Amastigotes/Macrophages. Assay plates (384-well) were prepared by adding 250nL of compound to each well. For single shot assay, the final compound concentration was 5 uM. […] Automated image analysis was performed with a script developed on Acapella High Content Imaging and Analysis Software (PerkinElmer). Output: Average number of amastigotes per macrophage cell were reported for each well.; format: functional, organism-based, Homo sapiens; conditions: THP-1
Leishmania donovani [4] = assay: GSK_TCAKS: pIC50 Leishmania donovani Imaging: THP-1 Host Macrophages. Assay plates (384-well) were prepared by adding 250nL of compound to each well. For single shot assay, the final compound concentration was 5 uM. […] Automated image analysis was performed with a script developed on Acapella High Content Imaging and Analysis Software (PerkinElmer). Output: THP-1 cell count were reported for each well.; format: functional, organism-based, Homo sapiens
[5] = target: Sterol 14-alpha demethylase (Trypanosoma cruzi (strain CL Brener), UniProt Q7Z1V1); assay: GSK_TCAKS: pIC50 CYP51 from Trypanosoma cruzi.; format: functional
Leishmania donovani [6] = assay: GSK_TCAKS: pIC50 Leishmania donovani viability assay using fluorescence intensity. Assay plates (1536-well) were prepared by adding 30nL per well of compound. For single shot assay, the final compound concentration was 5uM. […] Briefly, eGFP LdBOB axenic amastigotes were harvested, fixed and counted in a CASY cell counter (Roche-Applied Science). A final concentration of 1.5 * 10^5 cells per well were prepared in amastigote media containing 500 U/mL penicillin/streptomycin (Invitrogen) and 6uL was dispensed to each experimental well using a Multidrop Combi dispenser (Thermo Scientific). 6uL of assay media was dispensed to control columns used as reference for 100% compound response. Following incubation for 72 h at 37C, 5% CO2, 2 uL of resazurin was added to each well at a final concentration of 0.5 mM in phosphate buffered saline (PBS) with IGEPAL (Sigma-Aldrich), 0.05% (v/v).; format: functional, organism-based
Trypanosoma cruzi [7] = assay: GSK_TCAKS: pIC50 Trypanosoma cruzi Imaging: Amastigotes/Cell. […] Cells were then washed once with PBS before infection. T. cruzi trypomastigotes, collected at days 5 to 8 after infection from LLC-MK2 parasite infected cultures, were allowed to swim out for 4h at 37C from a centrifuged pellet (2,500 rpm/10 min/room temperature). Trypomastigotes were then collected and counted in a CASY Cell Counter. Trypomastigotes, in supplemented DMEM, were added to H9c2 cultures in a multiplicity of infection of 1 and incubated for 18 h. Cells were washed once with PBS before incubation of the infected H9c2 monolayer with trypsin (Life-Technologies) to detach cells from the flask. Cells were counted in a CASY Cell Counter using a 150 um capillary and their density set at 5 * 10^4 cells per mL in supplemented assay DMEM. Infected H9c2 were dispensed into 384-well poly-lysine coated assay plates at 50uL per well using a Multidrop Combi dispenser. After seeding them, the plates were incubated at 37C, 5% CO2 for 72h. Cultures were then fixed and stained by addition of 50 uL of a solution containing 8% formaldehyde and 4 uM DRAQ5 DNA dye (BioStatus, UK) per well. […] Five images were collected per well for reliable statistical analysis. Automated image analysis was performed with a script developed on Acapella High Content Imaging and Analysis Software (PerkinElmer). Output: number of amastigotes per cell as infection level measurement.; format: functional, organism-based, Rattus norvegicus; conditions: H9c2, 4 h
[8] = test system: Trypanosoma brucei brucei; assay: GSK_TCAKS: pIC50 Trypanosoma brucei viability assay using fluorescence intensity. Assay plates (1536-well) were prepared by dispensing 25nL of compound solution per well using an Echo acoustic dispenser (Labcyte).; format: functional, organism-based; conditions: Lister 427, 2 h
NIH3T3 = assay: GSK_TCAKS: pIC50 NIH 3T3 cell line viability assay using luminiscence. Tissue culture surface treated assay plates (1536-well) were used. […] The 100% cells survival control was determined exposing the host-cells to a 0.5% DMSO concentration, whereas the 100% toxicity control was achieved by seeding the cells in presence of Amphotericin B at 50uM. Plates were incubated for four days at 37C, 5% CO2. The assay readout was developed by addition of 5uL of CellTiter-Glo Reagent following the manufacturer's instructions. Luminiscence was measured using a ViewLux.; format: functional, cell-based; conditions: Mus musculus, NIH3T3, 96 h
[9] = GSK_TCAKS: pIC50 HepG2 human cell line viability assay using luminiscence. […] Seeding density was checked to ensure that new mono-layers were not more than 50% confluent at the time of harvesting. Cell suspension was added to 500 mL of the same medium at a final density of 1.2 * 10^5 cells/mL. This cell suspension was dispensed (25 uL, 3000 cells per well) into 384-well clear-bottom plates using a Multidrop Combi dispenser. Prior to addition of the cell suspension, the screening compounds (250 nL) were pre-dispensed into the plates with an Echo liquid handler. Plates were incubated for 48 h at 37C, 5% CO2. After incubation, plates equilibrated at room temperature for 30 min before proceeding to develop the luminescent signal. The signal developer, CellTiter-Glo Reagent, was allowed to equilibrate at room temperature for 30 min and added to the plates (25uL per well) using a Multidrop Combi dispenser. Plates were left for 10 min at room temperature for stabilization and then read using a ViewLux.; format: toxicity, cell-based
Trypanosoma cruzi [10] = assay: GSK_TCAKS: pIC50 Trypanosoma cruzi viability assay using beta-GAL activity. This assay was run at single shot at 5uM compound concentration per well. The biological reagents consisted of NIH-3T3 host cells and trypomastigotes parasitic cells; both cell types were set to a 3.3 * 10^5 cells/mL dilution in assay DMEM by means of a CASY cell counter device using a 60um capillary. 6 uL of the mixture were dispensed per well (about 1 * 10^3 host-cells and 1 * 10^3 parasites) with a Multidrop Combi dispenser. […] In all wells, the percentage of DMSO never exceeded 0.5%. Plates incubated for four days at 37C, 5% CO2. The substrate used for the assay fluorescence intensity (FLINT) readout was resorufin-beta-D-galactopiranoside (Sigma-Aldrich) at 5uM per well. It was diluted in PBS supplemented with the soft detergent Igepal (Fluka).; format: functional, organism-based, Mus musculus; conditions: Tulahuen, NIH3T3
[11] = test system: Trypanosoma brucei brucei; assay: GSK_TCAKS: pIC50 Trypanosoma brucei viability assay using luminiscence. Assay plates (1536-well) were prepared. T. brucei cultures were harvested and counted in a CASY cell counter. A parasite suspension was prepared at a final concentration of 5 * 10^4 cells/mL in complete HMI9 medium and 6uL was dispensed to all wells containing compounds using a Multidrop Combi dispenser. 6uL of HMI9 media with 0.4% DMSO were dispensed to control columns. Plates were incubated for 24 h at 37C, 5% CO2 then tempered for 10 min at room temperature. ATP content was quantified by adding 4 uL of CellTiter-Glo Reagent (Promega) according to the manufacturer's instructions. Luminescence was measured using a ViewLux.; format: functional, organism-based; conditions: Lister 427, CASY
Trypanosoma cruzi [12] = assay: as §1, with “H2C9” for “Trypanosoma cruzi”, “H9c2 Host Cardiomyocytes.” for “Infected Cells.”, “Number” for “percentage”, “H9c2 Host Cardiomyocytes nuclei to determine drug-related cytotoxicity.” for “infected cells per well as a second infection marker.”; format: functional, organism-based, Rattus norvegicus; conditions: H9c2, 4 h

Sequence of Sterol 14-alpha demethylase (Q7Z1V1 whole entry): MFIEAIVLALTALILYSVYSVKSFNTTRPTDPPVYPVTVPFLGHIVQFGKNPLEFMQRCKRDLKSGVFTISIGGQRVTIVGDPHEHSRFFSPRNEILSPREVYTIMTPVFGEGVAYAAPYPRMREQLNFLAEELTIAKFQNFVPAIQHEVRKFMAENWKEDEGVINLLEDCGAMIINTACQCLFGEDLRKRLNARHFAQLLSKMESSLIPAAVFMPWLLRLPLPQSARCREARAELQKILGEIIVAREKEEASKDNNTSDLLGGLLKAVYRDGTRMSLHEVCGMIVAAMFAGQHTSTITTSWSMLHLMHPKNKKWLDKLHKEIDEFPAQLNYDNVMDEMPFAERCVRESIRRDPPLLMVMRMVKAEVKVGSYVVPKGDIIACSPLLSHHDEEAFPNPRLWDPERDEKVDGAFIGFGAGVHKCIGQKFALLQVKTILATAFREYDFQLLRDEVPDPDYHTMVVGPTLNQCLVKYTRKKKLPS

Compound | IC50 (Trypanosoma cruzi [1]) | IC50 (Leishmania donovani [2]) | IC50 (Leishmania donovani [3]) | IC50 (Leishmania donovani [4]) | IC50 [5] | IC50 (Leishmania donovani [6]) | IC50 (Trypanosoma cruzi [7]) | IC50 [8] | IC50 (NIH3T3) | IC50 at 48 h [9] | IC50 (Trypanosoma cruzi [10]) | IC50 [11] | IC50 (Trypanosoma cruzi [12])
N#Cc1cccc(CN2CCC(c3nc(-c4ccc(C(F)(F)F)nc4)no3)CC2)c1 | 2 µM | > 50.1 µM | > 50.1 µM | > 50.1 µM | > 100 µM | 12.6 µM | 2.51 µM | > 39.8 µM | > 50.1 µM | > 100 µM | 2 µM | > 39.8 µM | > 50.1 µM
Clc1ccc(OCCN2CCCCC2c2cccnc2)c(Cl)c1 (stereo not given) | 0.2 µM | > 50.1 µM | 5.01 µM | > 50.1 µM | 0.0631 µM | 5.01 µM | 0.158 µM | 31.6 µM | 25.1 µM | 79.4 µM | 0.398 µM | > 39.8 µM | > 50.1 µM
Cc1c(C(=O)NCCCCn2ccnc2)oc2c(C)cccc12 | 0.501 µM | > 50.1 µM | > 50.1 µM | > 50.1 µM | 0.1 µM | > 50.1 µM | 0.501 µM | 20 µM | 31.6 µM | 79.4 µM | 0.224 µM | > 39.8 µM | > 50.1 µM
Cn1cc(CN2CCN(c3ccc4c(c3)CCN(C(=O)[C@H]3C[C@@H]3c3ccccc3)CC4)CC2)cn1 | 3.16 µM | 31.6 µM | 1 µM | 6.31 µM | 15.8 µM | 0.631 µM | 0.794 µM | 25.1 µM | 20 µM | 50.1 µM | 1.58 µM | 39.8 µM | 31.6 µM
COc1ccc(CN2CCCCC2c2nc(-c3cccnc3)no2)cc1 (stereo not given) | 0.794 µM | > 50.1 µM | > 50.1 µM | > 50.1 µM | 0.2 µM | > 50.1 µM | 0.631 µM | > 39.8 µM | > 50.1 µM | > 100 µM | 0.794 µM | > 39.8 µM | > 50.1 µM
CCC(=O)Nc1ccc(-c2nc3ccc(Cl)cc3[nH]2)cc1 | 1.58 µM | > 50.1 µM | > 50.1 µM | > 50.1 µM | > 100 µM | > 50.1 µM | 0.501 µM | 6.31 µM | > 50.1 µM | > 100 µM | 2 µM | > 39.8 µM | > 50.1 µM
NC(=O)c1ccc(-c2cccc(OCCN3CCN(C4CCCCC4)CC3)c2)cc1 | 1.58 µM | 50.1 µM | 10 µM | 31.6 µM | 39.8 µM | > 50.1 µM | 0.794 µM | 15.8 µM | 15.8 µM | 50.1 µM | 1.58 µM | 15.8 µM | > 50.1 µM
CCC(=O)Nc1ccc(C(=O)Nc2ccccc2-c2ccccc2)cc1 | 0.501 µM | 20 µM | 25.1 µM | 15.8 µM | > 100 µM | 10 µM | 0.251 µM | 20 µM | > 50.1 µM | > 100 µM | 0.501 µM | 25.1 µM | > 50.1 µM
COc1ccc(NS(=O)(=O)c2cccc(NC(=O)c3cc(F)cc(F)c3)c2)cc1 | 0.501 µM | > 50.1 µM | 20 µM | > 50.1 µM | > 100 µM | 3.16 µM | 0.501 µM | 0.631 µM | 25.1 µM | 31.6 µM | 0.794 µM | 1 µM | > 50.1 µM
COc1ccc([N+](=O)[O-])cc1NC(=O)Nc1cccc(Cl)c1 | 10 µM | > 50.1 µM | > 50.1 µM | 50.1 µM | > 100 µM | > 50.1 µM | 0.398 µM | 6.31 µM | > 50.1 µM | > 100 µM | 0.794 µM | 20 µM | > 50.1 µM
